Source: patent US7745404B2, “Use of calcitonin and calcitonin-like peptides to treat and prevent multiple sclerosis” (Wisconsin Alumni Research Foundation, priority 2002, dated 2010)

Key:
Assay type in all cases: in vivo
[1] = system: EAE in female C57BL/6J mice; assay: EAE in female C57BL/6J mice, sCT started prior to immunization, Example 5
Procedure: To determine the effect of calcitonin in C57BL/6J mice on EAE prior to immunization, female mice were maintained on a standard chow diet prior to and following EAE immunization.
(§1) EAE was induced as described above. Mice were injected with 200 ng of B. pertussis toxin on the day of immunization and 48 hours later.
sCT was prepared as described above. However, two days prior to immunization, mice were weighed and the pumps were filled with vehicle or 6 μg/kg per day of sCT of body weight to each mouse. The pumps were surgically placed subcutaneously in the upper back of mice anesthetized with 2% isofluorane. At the end of the study, successful delivery of the sCT was assessed by two methods. First, the fluid volume remaining in the pump reservoirs was measured. Second, the remaining sCT was pooled and intraperitoneally injected into C57BL/6J mice that were not included in the initial study. Serum calcium measurements were taken six hours after injection to determine if sCT maintained its bioactivity throughout the study.
Mice were examined daily, for over two weeks, for clinical signs of EAE utilizing the scoring system described above.
(§2) Blood samples were collected at multiple time-points and prepared and analyzed as described above. Likewise, statistical analysis was performed as noted above.

[2] = system: experimental autoimmune encephalomyelitis (EAE) in female 1α-OH KO mice; assay: EAE (murine model of MS) in female 1α-OH KO mice, Example 1
Procedure: (§3) To determine the effect of calcitonin on the murine model of MS, experimental autoimmune encephalomyelitis (EAE), 25-hydroxyvitamin D3-1α-hydroxylase knockout mice (1α-OH KO) were maintained on a purified diet containing 0.87% calcium and 1 ng 1,25-(OH)2D3 (Vit D) for two to three weeks prior to EAE immunization. EAE was induced at six to ten weeks of age by subcutaneous immunization of 200 μg of the immunodominant peptide to myelin oligodendrocyte glycoproprotein (MOG35-55).
(§4) The peptide was synthesized at University of Wisconsin Biotechnology Center using standard 9-fluorenyl-methoxy-carbonyl chemistry. The peptide was dissolved in Freund's complete adjuvant (CFA; Sigma; St. Louis, Mo.) containing 4 mg/ml of heat-inactivated Mycobacterium tuberculosis […] (Difco Laboratories; Detroit, Mich.).
(§5) Mice were injected with 200 ng of Bordetella pertussis toxin (List Biological Laboratories, Campbell, Calif.) on the day of immunization and 48 hours later. The mice were examined daily for clinical signs of EAE utilizing the following scoring system: 0, no sign; 1, limp tail; 2, hindlimb weakness; 3, hindlimb paralysis; 4, forelimb paralysis; 5, moribund or death.
(§6) Salmon calcitonin (sCT; Bachem California; Torrence, Calif.) was dissolved to a concentration of 1 mg/ml in a vehicle containing 150 mM NaCl, 1 mM HCl, and 2% heat inactivated sera. The serum used was from 1α-OH KO mice matched by sex to the group of mice receiving the treatment. SCT was chronically administered using Alzet osmotic minipumps model 1002 (Durect Corp.; Cupertino, Calif.) calibrated to deliver 0.25 μl/hour over a 15 day period.
(§7) Ten days after immunization, mice were weighed and the pumps were filled with either vehicle or sCT diluted to deliver 6 μg/kg of body weight per day to each mouse. The pumps were surgically placed subcutaneously in the upper back of mice anesthetized with 2% isofluorane. At the end of the study, successful delivery of the sCT was assessed by two methods. First, the fluid volume remaining in the pump reservoirs was measured. Second, the remaining sCT was pooled and intraperitoneally injected into 1α-knockout mice that were not included in the initial study. Serum calcium measurements were taken six hours after injection to determine if sCT maintained its bioactivity throughout the study. Blood samples were collected at multiple time-points throughout the study to monitor changes in serum calcium levels. Blood was obtained by the orbital bleed method. Approximately 150 μl was collected per mouse.
(§8) Statistical analysis was performed using the two-tailed Fisher exact probability test on incidence rates and the unpaired Student's t-test on all other measurements. Values of P<0.05 were considered statistically significant.

[3] = system: EAE in female C57BL/6J mice; assay: EAE in female C57BL/6J mice, sCT dose levels, Example 3; details: for % Sick / Incidence / Severity / Mean Onset Day: female C57BL/6J mice, standard chow; for Incidence: animals sick/total; for Severity: EAE score 0-5; for Mean Onset Day: days post immunization
Excerpt: To determine the effect of calcitonin on EAE in C57BL/6J mice (C57BL6 mice from Jackson Labs), female mice were maintained on a standard chow diet prior to and following EAE immunization. The C57BL6J strain was chosen primarily because it is one of the few strains susceptible to MOG-induced EAE, and also because the 1α-KO has been backcrossed into the C57BL6J strain. The diet was changed primarily because the mice being used were wild-type and no longer required the supplemented 1,25(OH)2D3 that the 1α-KO mice do. Additionally, we have typically seen higher incidence rates when animals are maintained on a regular chow diet versus the purified diet.
as §1
(§9) sCT was prepared as described above. One week after immunization, mice were weighed and the pumps were filled with vehicle, 6 μg/kg of sCT per day of body weight or 60 μg/kg of sCT per day of body weight to each mouse. The pumps were surgically placed subcutaneously in the upper back of mice anesthetized with 2% isofluorane. At the end of the study, successful delivery of the sCT was assessed by two methods. First, the fluid volume remaining in the pump reservoirs was measured. Second, the remaining sCT was pooled and intraperitoneally injected into C57BL/6J mice that were not included in the initial study. Serum calcium measurements were taken six hours after injection to determine if sCT maintained its bioactivity throughout the study.
(§10) Mice were examined daily, for over two weeks, for clinical signs of EAE utilizing the following scoring system as described above.
(§11) Blood samples were collected at multiple time-points and prepared and analyzed as described above. Likewise, statistical analysis was as performed as noted above.

[4] = Serum calcium in 1α-OH KO mice, Example 1; details: 6 μg/kg of calcitonin
Procedure: as §7
(§12) Collected blood samples were centrifuged at 6000 rpm for 15 minutes; followed by another 60-second spin at 14000 rpm. Serum samples were diluted in 0.1% LaCl3 and serum calcium values were measured using a Perkin Elmer atomic absorption spectrometer.

[5] = system: EAE in female C57BL/6J mice; assay: EAE in female C57BL/6J mice, calcitonin and Vit D, Example 4; details: for EAE score: female C57BL6J mice, compared to 1 ng Vit D alone (FIG. 5, Table 6); for Incidence: vehicle pump, animals sick/total
Procedure: To determine the effect of calcitonin and Vit D on EAE in C57BL/6J mice, female C57BL/6J mice were maintained on standard chow until eight weeks of age, and then switched to a purified diet containing 0.87% calcium supplemented with 1 ng or 30 ng of 1,25-(OH)2D3 for one week prior to EAE immunization.
as §1
as §9, with “vehicle or 30” for “vehicle, 6”, “μg/kg” for “μg/kg of sCT”, “of” for “of body weight or 60 μg/kg of”, “sCT” for “sCT per day”
as §10, §2

[6] = system: EAE in female C57BL6h mice; assay: EAE in female C57BL6h mice, Example 2
Procedure: To determine the effect of calcitonin on EAE in mice, female mice were maintained as described above. The strain of mouse used in this experiment was C57BL6 which was obtained from Harlan Labs and therefore should be designated C57BL6h. The only difference from the experiment above is that these mice were fed a regular chow diet (Formulab Chow 5008, PMI Labdiet).
as §1
as §9, with “6” for “6 μg/kg of sCT per day of body weight or 60”, “into” for “into C57BL/6J”
Mice were examined daily, for over two weeks, for clinical signs of EAE utilizing the following scoring system described above.
as §2

[7] = Serum calcium in female C57BL/6J mice, Example 3
Procedure: as §12, §11

[8] = system: experimental autoimmune encephalomyelitis (EAE) in male 1α-OH KO mice; assay: EAE (murine model of MS) in male 1α-OH KO mice, Example 1
Procedure: as §3, §4, §5, §6, §7, §8

[9] = Serum calcium in female C57BL/6J mice, Example 4; details: 30 ng Vit D (regardless of whether sCT was provided) compared to 1 ng Vit D
Procedure: as §12, §2

[10] = female C57BL/6J, 0.87% calcium diet with 1 ng Vit D
[11] = female C57BL/6J, 0.87% calcium diet with 30 ng Vit D

## Salmon calcitonin [sCT]
[1]; female C57BL6J mice administered 6 μg/kg of calcitonin from two days prior to immunization, compared to vehicle alone (FIG. 6)
  EAE score: delayed and diminished the EAE score
[1]; female C57Bl/6J mice, standard chow, sCT 6 μg/kg per day by minipump from two days prior to immunization, animals sick/total
  Incidence: 19/20 sick
[1]; female C57Bl/6J mice, standard chow, sCT 6 μg/kg per day from two days prior to immunization
  % Sick: 95.0%
[1]; female C57Bl/6J mice, standard chow, sCT 6 μg/kg per day from two days prior to immunization, EAE score 0-5
  Severity: 2.9 ± 1.1
[1]; female C57Bl/6J mice, standard chow, sCT 6 μg/kg per day from two days prior to immunization, days post immunization
  Mean Onset Day: 15 ± 2 days
[2]; female 1α-KO mice, 0.87% calcium + 1 ng Vitamin D diet, sCT 6 μg/kg per day by minipump from ten days after immunization
  % Sick: 42.9%
[2]; female 1α-KO mice, 0.87% calcium + 1 ng Vitamin D diet, sCT 6 μg/kg per day by minipump, EAE score 0-5
  Severity: 1.3 ± 0.6
[2]; female 1α-KO mice, 0.87% calcium + 1 ng Vitamin D diet, sCT 6 μg/kg per day by minipump, days post immunization
  Mean Onset Day: 41 ± 11 days
[2]; female 1α-KO mice, 0.87% calcium + 1 ng Vitamin D diet, sCT 6 μg/kg per day by osmotic minipump from ten days after immunization, animals sick/total
  Incidence: 3/7 sick
[2]; female 1α-OH KO mice, compared to vehicle alone (FIG. 1, Table 2)
  EAE score: delayed and diminished the EAE score
[3]; female C57BL6J mice administered 60 μg/kg of calcitonin, compared to vehicle alone (FIG. 4, Table 5)
  EAE score: delayed and diminished the EAE score
[3]; 6 μg/kg sCT
  % Sick: 82.0%
  Severity: 3.8 ± 0.6
  Mean Onset Day: 14 ± 3 days
[3]; 6 μg/kg sCT per day by minipump from one week after immunization
  Incidence: 9/11 sick
[3]; 60 μg/kg sCT
  % Sick: 67.0%
  Severity: 3.5 ± 1.3
  Mean Onset Day: 16 ± 2 days
[3]; 60 μg/kg sCT per day by minipump from one week after immunization
  Incidence: 6/9 sick
[4]; female 1α-OH KO mice
  serum calcium levels: generally unaffected
[4]; male 1α-OH KO mice
  serum calcium levels: unaffected
[5]; sCT (30 μg/kg per day)
  EAE score: delayed and diminished the EAE score
[6]; compared to vehicle alone (FIG. 3)
  EAE score: delayed and diminished the EAE score
[6]; sCT 6 μg/kg per day by minipump from one week after immunization
  % Sick: 25.0%
[6]; sCT 6 μg/kg per day by minipump from one week after immunization, EAE score 0-5
  Severity: 2.0 ± 0.7
[6]; sCT 6 μg/kg per day by minipump from one week after immunization, days post immunization
  Mean Onset Day: 14 ± 1 days
[6]; sCT 6 μg/kg per day by minipump from one week after immunization, table title: 0.87% calcium + 1 ng Vitamin D diet (text: regular chow), animals sick/total
  Incidence: 2/8 sick
[7]; 6 μg/kg of calcitonin
  serum calcium levels: initially lowered
[7]; 60 μg/kg of calcitonin
  serum calcium levels: initially lowered
[8]; male 1α-KO mice, 0.87% calcium + 1 ng Vitamin D diet, sCT 6 μg/kg per day by minipump
  % Sick: 28.6%
[8]; male 1α-KO mice, 0.87% calcium + 1 ng Vitamin D diet, sCT 6 μg/kg per day by minipump, EAE score 0-5
  Severity: 2.5 ± 0.7
[8]; male 1α-KO mice, 0.87% calcium + 1 ng Vitamin D diet, sCT 6 μg/kg per day by minipump, days post immunization
  Mean Onset Day: 30 ± 8 days
[8]; male 1α-KO mice, 0.87% calcium + 1 ng Vitamin D diet, sCT 6 μg/kg per day by osmotic minipump from ten days after immunization, animals sick/total
  Incidence: 2/7 sick
[8]; male 1α-OH KO mice treated with calcitonin compared with female 1α-OH KO mice treated with calcitonin
  reduction in the EAE score, male versus female: similar, but lesser, reduction in the EAE score
[8]; male 1α-OH KO mice, compared to vehicle alone (FIG. 2, Table 3)
  EAE score: lowered the EAE score

## C=C1/C(=C\C=C2/CCC[C@]3(C)[C@@H]([C@H](C)CCCC(C)(C)O)CC[C@@H]23)C[C@@H](O)C[C@@H]1O [Vit D, 1α,25-dihydroxyvitamin D3]
[9]
  serum calcium levels: elevated
[5]; 30 ng Vit D
  EAE score: delayed and diminished the EAE score
[5]; [10]
  % Sick: 67.0%
  Incidence: 6/9 sick
[5]; female C57BL/6J, 0.87% calcium diet with 1 ng Vit D, EAE score 0-5
  Severity: 2.9 ± 0.9
[5]; female C57BL/6J, 0.87% calcium diet with 1 ng Vit D, days post immunization
  Mean Onset Day: 15 ± 2 days
[5]; [11]
  % Sick: 0.0%
  Incidence: 0/8 sick
